Assay results reported in patent US11673898B2, “Substituted inhibitors of menin-MLL and methods of use” (Kura Oncology, Inc., priority 2016, dated 2023).

Key:
MLL-AF9 BMC = test: Cell proliferation assay (CellTiter-Glo); assay type: cell-based
Method: Example 9: Cell proliferation assay. The ability of a compound of the present disclosure to inhibit the growth of cells, such as human leukemia cell, acute myeloid leukemia cell, cells with an MLL fusion, control cells without an MLL fusion, VCaP, LNCaP, 22RV1, DU145, LNCaP-AR, MV4; 11, KOPN-8, ML-2, MOLM-13, RS4; 11, SEM, bone marrow cells (BMCs), MLL-AF9, MLL-AF4, MLL-ENL, MLL-CBP, MLL-GAS7, MLL-AF1p, MLL-AF6, HM-2, E2A-HLF, REH, U937, K562, KG-1, HL-60 and NB4 cells, is tested using a cell viability assay, such as the Promega CellTiter-Glo® Luminescent Cell Viability Assay (Promega Technical Bulletin, 2015, “CellTiter-Glo® Luminescent Cell Viability Assay”: 1-15, herein incorporated by reference in its entirety). Cells are plated at relevant concentrations, for example about 1×10^5-2×10^5 cells per well in a 96-well plate. A compound of the present disclosure is added at a concentration up to about 2 μM with eight, 2-fold serial dilutions for each compound. Cells are incubated at 37° C. for a period of time, for example, 72 hours, then cells in the control wells are counted. Media is changed to restore viable cell numbers to the original concentration, and compounds are re-supplied. Proliferation is measured about 72 hours later using Promega CellTiter-Glo® reagents, as per kit instructions.

Menin MLL 4-43 = target: T1, Menin MLL 4-43 (Homo sapiens, UniProt O00255); test: Fluorescence polarization (FP) competition assay of the menin-MLL interaction; assay type: binding; conditions: fluorescence polarization assay; read-out: Menin MLL 4-43 IC50
T1 sequence (O00255 1-610): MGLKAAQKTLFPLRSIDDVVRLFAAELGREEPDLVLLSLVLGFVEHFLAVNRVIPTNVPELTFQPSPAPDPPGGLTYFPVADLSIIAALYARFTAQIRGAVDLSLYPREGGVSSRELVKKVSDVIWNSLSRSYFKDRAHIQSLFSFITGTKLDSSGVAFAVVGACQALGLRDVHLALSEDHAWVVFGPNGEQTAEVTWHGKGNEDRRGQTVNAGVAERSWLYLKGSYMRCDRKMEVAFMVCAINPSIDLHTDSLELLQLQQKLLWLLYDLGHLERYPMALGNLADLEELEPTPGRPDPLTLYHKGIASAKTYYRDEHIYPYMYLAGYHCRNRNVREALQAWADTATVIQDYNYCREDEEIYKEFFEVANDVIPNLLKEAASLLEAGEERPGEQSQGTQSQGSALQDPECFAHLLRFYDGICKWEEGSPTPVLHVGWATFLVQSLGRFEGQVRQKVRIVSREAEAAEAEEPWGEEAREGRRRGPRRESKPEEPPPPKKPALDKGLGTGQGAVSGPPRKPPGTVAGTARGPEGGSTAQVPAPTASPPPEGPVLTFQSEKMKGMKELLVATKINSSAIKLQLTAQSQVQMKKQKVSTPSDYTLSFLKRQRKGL

| Structure (SMILES) | IC50 (Menin MLL 4-43) | GI50 (MLL-AF9 BMC) |
| --- | --- | --- |
| CCc1nc(NC2CCN(Cc3ccc4c(cc(C#N)n4C[C@H](C)N4CCN(S(C)(=O)=O)CC4)c3C)CC2)c2cc(CC(F)(F)F)sc2n1 [Compound 171] | 50 to 250 nM | 10 to 50 nM |
| CCNc1nc(NC2CCN(Cc3ccc4c(cc(C#N)n4C[C@H](C)N4CCN(S(C)(=O)=O)CC4)c3C)CC2)c2cc(CC(F)(F)F)sc2n1 [Compound 174] | 50 to 250 nM | 10 to 50 nM |
| CNc1nc(NC2CCN(Cc3ccc4c(cc(C#N)n4C[C@H](C)N4CCN(S(C)(=O)=O)CC4)c3C)CC2)c2cc(CC(F)(F)F)sc2n1 [Compound 151] | – | < 10 nM |
| CNc1nc(NC2CCN(Cc3ccc4c(cc(C#N)n4C[C@H](C)N4CCC(C)(C#N)CC4)c3C)CC2)c2cc(CC(F)(F)F)sc2n1 [Compound 199] | 50 to 250 nM | < 10 nM |
| Cc1c(CN2CCC(Nc3nc(N)nc4sc(CC(F)(F)F)cc34)CC2)ccc2c1cc(C#N)n2C[C@H](C)N1CCN(CC(=O)N(C)C)CC1 [Compound 181] | < 50 nM | 10 to 50 nM |
| Cc1c(CN2CCC(Nc3ncnc4sc(CC(F)(F)F)cc34)CC2)ccc2c1cc(C#N)n2C[C@@H](C)N1CCN(S(C)(=O)=O)CC1 [Compound 9] | > 1000 nM | 250 to 1000 nM |
| C[C@@H](Cn1c(C#N)cc2cc(CN3CCC(Nc4nc(N)nc5sc(CC(F)(F)F)cc45)CC3)c(O)cc21)N1CCN(S(C)(=O)=O)CC1 [Compound 172] | < 50 nM | < 10 nM |
| CNc1nc(NC2CCN(Cc3ccc4c(cc(C#N)n4C[C@H](C)N4CCS(=O)(=O)CC4)c3C)CC2)c2cc(CC(F)(F)F)sc2n1 [Compound 203] | < 50 nM | < 10 nM |
| Cc1nc(NC2CCN(Cc3ccc4c(cc(C#N)n4C[C@H](C)N4CCN(S(C)(=O)=O)CC4)c3C)CC2)c2cc(CC(F)(F)F)sc2n1 [Compound 138] | < 50 nM | 10 to 50 nM |
| Cc1c(CN2CCC(Nc3ncnc4sc(CC(F)(F)F)cc34)CC2)ccc2c1cc(C#N)n2CC(C)N1CCN(S(C)(=O)=O)C(C(N)=O)C1 (stereo not shown) [Compound 80] | < 50 nM | 10 to 50 nM |
| COc1nc(NC2CCN(Cc3ccc4c(cc(C#N)n4C[C@H](C)N4CCN(S(C)(=O)=O)CC4)c3C)CC2)c2cc(CC(F)(F)F)sc2n1 [Compound 183] | < 50 nM | < 10 nM |
| CNS(=O)(=O)C1CCN([C@@H](C)Cn2c(C#N)cc3c(C)c(CN4CCC(Nc5nc(OC)nc6sc(CC(F)(F)F)cc56)CC4)ccc32)CC1 [Compound 214] | < 50 nM | < 10 nM |
| CNc1nc(NC2CCN(Cc3ccc4c(cc(C#N)n4C[C@H](C)N4CCN(S(=O)(=O)CF)CC4)c3C)CC2)c2cc(CC(F)(F)F)sc2n1 [Compound 198] | 50 to 250 nM | – |
| CCC(Cn1c(C#N)cc2c(C)c(CN3CCC(Nc4ncnc5sc(CC(F)(F)F)cc45)CC3)ccc21)N1CCN(S(C)(=O)=O)CC1 (stereo not shown) [Compound 15] | > 1000 nM | – |
| CNc1nc(NC2CCN(Cc3ccc4c(cc(C#N)n4C[C@H](C)N4CCC(CC(N)=O)CC4)c3C)CC2)c2cc(CC(F)(F)F)sc2n1 [Compound 204] | < 50 nM | – |
| CCCCNS(=O)(=O)N1CCN([C@@H](C)Cn2c(C#N)cc3c(C)c(CN4CCC(Nc5ncnc6sc(CC(F)(F)F)cc56)CC4)ccc32)CC1 [Compound 142] | 50 to 250 nM | – |
| CNS(=O)(=O)N1CCN([C@@H](C)Cn2c(C#N)cc3c(C)c(CN4CCC(Nc5nc(OC)nc6sc(CC(F)(F)F)cc56)CC4)ccc32)CC1 [Compound 205] | < 50 nM | < 10 nM |

Further lines, with some results ahead:

| IC50 (Menin MLL 4-43) | Structure (SMILES) | GI50 (MLL-AF9 BMC) |
| --- | --- | --- |
| < 50 nM | CNS(=O)(=O)N1CCN([C@@H](C)Cn2c(C#N)cc3c(C)c(CN4CCC(Nc5nc(C)nc6sc(CC(F)(F)F)cc56)CC4)ccc32)CC1 [Compound 139] | 10 to 50 nM |
| < 50 nM | CNS(=O)(=O)N1CCN([C@@H](C)Cn2c(C#N)cc3cc(CN4CCC(Nc5nc(N)nc6sc(CC(F)(F)F)cc56)CC4)c(O)cc32)CC1 [Compound 177] | < 10 nM |
| < 50 nM | Cc1c(CN2CCC(Nc3nc(N)nc4sc(CC(F)(F)F)cc34)CC2)ccc2c1cc(C#N)n2C[C@H](C)N1CCN(CC(N)=O)CC1 [Compound 175] | 10 to 50 nM |
| < 50 nM | Cc1c(CN2CCC(Nc3nc(N)nc4sc(CC(F)(F)F)cc34)CC2)ccc2c1cc(C#N)n2C[C@H](C)N1CCN(S(C)(=O)=O)CC1 [Compound 135] | < 10 nM |
| < 50 nM | CNC(=O)C1CN([C@@H](C)Cn2c(C#N)cc3c(C)c(CN4CCC(Nc5nc(NC)nc6sc(CC(F)(F)F)cc56)CC4)ccc32)CCO1 (stereo partly shown) [Compound 217] | 10 to 50 nM |
| < 50 nM | CNC(=O)CN1CCN([C@@H](C)Cn2c(C#N)cc3c(C)c(CN4CCC(Nc5nc(N)nc6sc(CC(F)(F)F)cc56)CC4)ccc32)CC1 [Compound 176] | 10 to 50 nM |
| < 50 nM | Cc1c(CN2CCC(Nc3ncnc4sc(CC(F)(F)F)cc34)CC2)ccc2c1cc(C#N)n2C[C@H](C)N1CCN(S(C)(=O)=O)CC1 [Compound 10] | 10 to 50 nM |
| < 50 nM | Cc1c(CN2CCC(Nc3ncnc4sc(CC(F)(F)F)cc34)CC2)ccc2c1cc(C#N)n2C[C@H](C)N1CCN(S(C)(=O)=O)[C@H](C(N)=O)C1 [Compound 163] | < 10 nM |
| < 50 nM | CNc1nc(NC2CCN(Cc3ccc4c(cc(C#N)n4C[C@H](C)N4CCC(C)(O)CC4)c3C)CC2)c2cc(CC(F)(F)F)sc2n1 [Compound 207] | < 10 nM |
| < 50 nM | CNS(=O)(=O)N1CCN([C@@H](C)Cn2c(C#N)cc3c(C)c(CN4CCC(Nc5nc(N)nc6sc(CC(F)(F)F)cc56)CC4)ccc32)CC1 [Compound 132] | < 10 nM |
